# Tests used:
# [1] = test system: Smad2/Smad3 phosphorylation; test: Phospho-Smad2/3 Inhibition Assay (western blot), Panc-1; assay type: cell-based, human; settings: at 10 μM, Panc-1 pancreatic cancer cell line; starred symbols = activation
# Method in brief: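 Western blotting of lysates (15-50 μg protein) read phosphorylation of Smad2 Ser465/467 and Smad3 Ser423/425. Before lysis, Panc-1 cells got 1 h of 10 ng/ml TGF-b1 following 3 h compound exposure at 37° C (10 μM final, or serial dilutions for IC50, 0.3% DMSO) after overnight 0.5% FBS starvation.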
# MAPK p38 phosphorylation = test: MAPK p38 Activation Assay (western blot), Panc-1; assay type: cell-based, human; settings: at 10 μM, Panc-1 pancreatic cancer cell line; starred symbols = activation
# Method in brief: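 Panc-1 cells (KRas G12D) were treated with compound for 6 h at 37 °C, at 10 μM or as serial dilutions for IC50, with 0.3% DMSO. Method 1 used overnight serum-starved cells (0.5% FBS) stimulated with 1.5 ng/ml EGF for 15 min; Method 2 used unstimulated cells in 10% FBS. Phospho-p38 (Thr180/Tyr182) was detected by western blot.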
# TNF-alpha = TNF-alpha Quantification Assay (ELISA), LPS-stimulated RAW 264.7; assay type: cell-based; settings: Mus musculus, RAW264.7; at 10 μM; read-out: TNFα: % inh.
Structure (SMILES),% inh of Smad2/3 phosphorylation in Panc-1 [1],% inh of MAPK p38 in Panc-1 (MAPK p38 phosphorylation),inhibition at 10 µM (TNF-alpha) [%]
"CO[C@H]1C[C@H](Nc2nc(-c3nccn3C)nn3cc(-c4ccc(CCN)cc4)c(-c4ccccc4)c23)C1.Cl [Compound 207, 6-(4-(2-Aminoethyl)phenyl)-N-((1r,3r)-3-methoxycyclobutyl)-2-(1-methyl-1H-imidazol-2-yl)-5-phenylpyrrolo[2,1-f][1,2,4]triazin-4-amine hydrochloride salt]",D (D = 76-100% inhibition),H (H = 100% inhibition),75 to 100
"CO[C@H]1C[C@H](Nc2nc(-c3nccn3C)nn3cc(-c4cccc5c4CCO5)c(-c4ccccc4)c23)C1 [Compound 210, 6-(2,3-Dihydrobenzofuran-4-yl)-N-((1r,3r)-3-methoxycyclobutyl)-2-(1-methyl-1H-imidazol-2-yl)-5-phenylpyrrolo[2,1-f][1,2,4]triazin-4-amine]",D (D = 76-100% inhibition),G (G = 75-99% inhibition),75 to 100
"CO[C@H]1C[C@H](Nc2nc(-c3nccn3C)nn3cc(-c4ccc(CN)cc4)c(-c4ccccc4)c23)C1.Cl [Compound 206, 6-(4-(Aminomethyl)phenyl)-N-((1r,3r)-3-methoxycyclobutyl)-2-(1-methyl-1H-imidazol-2-yl)-5-phenylpyrrolo[2,1-f][1,2,4]triazin-4-amine hydrochloride salt]",B (B = 26-45% inhibition),E (E = 1-30% inhibition),1 to 24
"COCCNc1nc(-c2nccn2C)nn2cc(-c3cccc(OC)c3Cl)c(C)c12 [Compound 16, 6-(2-Chloro-3-methoxyphenyl)-N-(2-methoxyethyl)-5-methyl-2-(1-methyl-1H-imidazol-2-yl)pyrrolo[2,1-f][1,2,4]triazin-4-amine]",0 (0 = 0% inhibition),H* (H* ≥ 100% activation),0
"Cn1ccnc1-c1nc(NS(C)(=O)=O)c2c(-c3ccccc3)c(-c3ccccc3)cn2n1 [Compound 212, N-(2-(1-Methyl-1H-imidazol-2-yl)-5,6-diphenylpyrrolo[2,1-f][1,2,4]triazin-4-yl) methanesulfonamide]",C (C = 46-75% inhibition),F (F = 31-74% inhibition),0
"COc1ccnc(Nc2nc(-c3nccn3C)nn3cc(-c4cccnc4)c(-c4ccccc4)c23)c1 [Compound 196, N-(4-Methoxypyridin-2-yl)-2-(1-methyl-1H-imidazol-2-yl)-5-phenyl-6-(pyridin-3-yl)pyrrolo[2,1-f][1,2,4]triazin-4-amine]",C (C = 46-75% inhibition),F (F = 31-74% inhibition),75 to 100
"COc1cccc(Nc2nc(-c3ccccn3)nn3cc(-c4ccn(C(C)C)n4)c(C)c23)n1 [Compound 14, 6-(1-Isopropyl-1H-pyrazol-3-yl)-N-(6-methoxypyridin-2-yl)-5-methyl-2-(pyridin-2-yl)pyrrolo[2,1-f][1,2,4]triazin-4-amine]",0 (0 = 0% inhibition),H* (H* ≥ 100% activation),0
"COC1CCCN(c2nc(-c3ccccn3)nn3cc(-c4ccn(C(C)C)n4)c(C)c23)C1 (racemic) [Compound 12, rac 6-(1-Isopropyl-1H-pyrazol-3-yl)-4-(3-methoxypiperidin-1-yl)-5-methyl-2-(pyridin-2-yl)pyrrolo[2,1-f][1,2,4]triazine]",0 (0 = 0% inhibition),H* (H* ≥ 100% activation),0
"CO[C@H]1CC[C@H](Nc2nc(-c3nccn3C)nn3cc(-c4cccnc4)c(-c4ccccc4)c23)C1 (racemic) [Compound 194, rac N-((1S,3S)-3-Methoxycyclopentyl)-2-(1-methyl-1H-imidazol-2-yl)-5-phenyl-6-(pyridin-3-yl)pyrrolo[2,1-f][1,2,4]triazin-4-amine]",A (A = 1-25% inhibition),E (E = 1-30% inhibition),50 to 74
"CO[C@H]1C[C@H](Nc2nc(-c3nccn3C)nn3cc(-c4cnccc4C)c(-c4ccccc4)c23)C1 [Compound 218, N-((1r,3r)-3-Methoxycyclobutyl)-2-(1-methyl-1H-imidazol-2-yl)-6-(4-methylpyridin-3-yl)-5-phenylpyrrolo[2,1-f][1,2,4]triazin-4-amine]",B* (B* = 26-45% activation),F* (F* = 31-74% activation),1 to 24
"COc1ccnc(Nc2nc(-c3nccn3C)nn3cc(-c4c(F)cccc4OC)c(-c4ccccc4)c23)c1 [Compound 217, 6-(2-Fluoro-6-methoxyphenyl)-N-(4-methoxypyridin-2-yl)-2-(1-methyl-1H-imidazol-2-yl)-5-phenylpyrrolo[2,1-f][1,2,4]triazin-4-amine]",C (C = 46-75% inhibition),F (F = 31-74% inhibition),25 to 49
"CO[C@H]1C[C@@H](Nc2nc(-c3nccn3C)nn3cc(-c4cccnc4)c(-c4ccccc4)c23)C1 [Compound 191, N-((1s,3s)-3-Methoxycyclobutyl)-2-(1-methyl-1H-imidazol-2-yl)-5-phenyl-6-(pyridin-3-yl)pyrrolo[2,1-f][1,2,4]triazin-4-amine]",A* (A* = 1-25% activation),E* (E* = 1-30% activation),1 to 24
"COc1ccnc(Nc2nc(-c3nccn3C)nn3cc(-c4ccn(CCN)n4)c(C)c23)c1 [Compound 187, 6-(1-(2-Aminoethyl)-1H-pyrazol-3-yl)-N-(4-methoxypyridin-2-yl)-5-methyl-2-(1-methyl-1H-imidazol-2-yl)pyrrolo[2,1-f][1,2,4]triazin-4-amine]",A* (A* = 1-25% activation),E* (E* = 1-30% activation),1 to 24
"COCCNc1nc(-c2nccn2C)nn2cc(-c3cccnc3)c(-c3ccccc3)c12 [Compound 195, N-(2-Methoxyethyl)-2-(1-methyl-1H-imidazol-2-yl)-5-phenyl-6-(pyridin-3-yl)pyrrolo[2,1-f][1,2,4]triazin-4-amine]",A* (A* = 1-25% activation),E* (E* = 1-30% activation),0
"COc1ccnc(Nc2nc(-c3nccn3CCN)nn3cc(-c4ccn(C)n4)c(C)c23)c1 [Compound 188, 2-(1-(2-Aminoethyl)-1H-imidazol-2-yl)-N-(4-methoxypyridin-2-yl)-5-methyl-6-(1-methyl-1H-pyrazol-3-yl)pyrrolo[2,1-f][1,2,4]triazin-4-amine]",B (B = 26-45% inhibition),E (E = 1-30% inhibition),0
"COCCNc1nc(-c2nccn2C)nn2cc(-c3ccncc3)c(-c3ccccc3)c12 [Compound 202, N-(2-Methoxyethyl)-2-(1-methyl-1H-imidazol-2-yl)-5-phenyl-6-(pyridin-4-yl)pyrrolo[2,1-f][1,2,4]triazin-4-amine]",A (A = 1-25% inhibition),E (E = 1-30% inhibition),1 to 24

# Reference: patent publication US12459951B2, “Compounds that interact with RAS superfamily proteins for treatment of cancers, inflammatory diseases, rasopathies, and fibrotic disease” (SHY Therapeutics, LLC, priority 2022, dated 2025)
